Literature values as cited in PMC13231908, “Evaluating acridones as novel therapeutics for human babesiosis” (Antimicrobial Agents and Chemotherapy, 2026).

Conditions: mouse, in vivo, po, 80 mg/kg

Row | Compound | AUCinf [ng·h/mL] | AUClast [ng·h/mL]
2 | O=c1c2cc(F)c(Oc3ccc(OC(F)(F)F)cc3)cc2[nH]c2cc(Cl)cc(F)c12 [T226] | 95.7 | 33.9
